Values after ≈ are worked out from the molar mass of the structure shown. Blank lines part the entries; values can stand above or below the molecule they belong to.
How the values were obtained:
Plasmodium falciparum [1] = assay: Antiplasmodial activity against chloroquine-sensitive Plasmodium falciparum 3D7; type: functional, organism-based
Plasmodium falciparum [2] = assay: Antiplasmodial activity against wild type Plasmodium falciparum 3D7; type: functional, organism-based
[3] = molecular target: Voltage-gated inwardly rectifying potassium channel KCNH2 (Homo sapiens, UniProt Q12809); assay: Binding affinity to human ERG channel
Plasmodium falciparum [4] = assay: Antiplasmodial activity against Plasmodium falciparum W2; type: functional, organism-based
Plasmodium = assay: Antimicrobial activity against Plasmodium; type: functional
Plasmodium falciparum [5] = assay: Antiplasmodial activity against Plasmodium falciparum after 72 hrs by MSF assay; type: functional, organism-based
Plasmodium falciparum [6] = assay: Antiplasmodial activity against atovaquone-resistant Plasmodium falciparum Tm90.C2B after 72 hrs by MSF assay; type: functional, organism-based
[7] = Half life in mouse hepatic microsomes by LC/MS analysis in presence of NADPH; type: ADME; details: liver microsomes
Plasmodium falciparum [8] = assay: Antimicrobial activity against clinical isolates of Plasmodium falciparum; type: functional, organism-based
[9] = Solubility of the compound at pH 6.8; type: physicochemical; details: buffer
Plasmodium falciparum [10] = assay: Antiplasmodial activity against blood stage form of Plasmodium falciparum NF54; type: functional, organism-based
Plasmodium berghei = assay: Antiplasmodial activity against Plasmodium berghei infected po dosed CD-1 mouse model administered qd measured on day 4; type: functional; details: 96 h
[11] = Elimination half life in CD-1 mouse at 5 mg/kg, po; type: ADME, organism-based; parameters: dose 5 mg/kg, route oral; details: in vivo, read-out: beta t1/2 (converted)
Plasmodium falciparum [12] = assay: Antiplasmodial activity against blood stage Plasmodium falciparum 3D7 by SYBR Green method; type: functional, organism-based
[13] = Aqueous solubility of the compound; type: physicochemical; details: aqueous (not further specified)
Plasmodium falciparum [14] = assay: Antiplasmodial activity against Plasmodium falciparum W2/Indochina after 72 hrs by SYBR Green method; type: functional
[15] = Half life in mouse liver microsomes; type: ADME, Microsome

Sequence of Voltage-gated inwardly rectifying potassium channel KCNH2 (Q12809 whole entry): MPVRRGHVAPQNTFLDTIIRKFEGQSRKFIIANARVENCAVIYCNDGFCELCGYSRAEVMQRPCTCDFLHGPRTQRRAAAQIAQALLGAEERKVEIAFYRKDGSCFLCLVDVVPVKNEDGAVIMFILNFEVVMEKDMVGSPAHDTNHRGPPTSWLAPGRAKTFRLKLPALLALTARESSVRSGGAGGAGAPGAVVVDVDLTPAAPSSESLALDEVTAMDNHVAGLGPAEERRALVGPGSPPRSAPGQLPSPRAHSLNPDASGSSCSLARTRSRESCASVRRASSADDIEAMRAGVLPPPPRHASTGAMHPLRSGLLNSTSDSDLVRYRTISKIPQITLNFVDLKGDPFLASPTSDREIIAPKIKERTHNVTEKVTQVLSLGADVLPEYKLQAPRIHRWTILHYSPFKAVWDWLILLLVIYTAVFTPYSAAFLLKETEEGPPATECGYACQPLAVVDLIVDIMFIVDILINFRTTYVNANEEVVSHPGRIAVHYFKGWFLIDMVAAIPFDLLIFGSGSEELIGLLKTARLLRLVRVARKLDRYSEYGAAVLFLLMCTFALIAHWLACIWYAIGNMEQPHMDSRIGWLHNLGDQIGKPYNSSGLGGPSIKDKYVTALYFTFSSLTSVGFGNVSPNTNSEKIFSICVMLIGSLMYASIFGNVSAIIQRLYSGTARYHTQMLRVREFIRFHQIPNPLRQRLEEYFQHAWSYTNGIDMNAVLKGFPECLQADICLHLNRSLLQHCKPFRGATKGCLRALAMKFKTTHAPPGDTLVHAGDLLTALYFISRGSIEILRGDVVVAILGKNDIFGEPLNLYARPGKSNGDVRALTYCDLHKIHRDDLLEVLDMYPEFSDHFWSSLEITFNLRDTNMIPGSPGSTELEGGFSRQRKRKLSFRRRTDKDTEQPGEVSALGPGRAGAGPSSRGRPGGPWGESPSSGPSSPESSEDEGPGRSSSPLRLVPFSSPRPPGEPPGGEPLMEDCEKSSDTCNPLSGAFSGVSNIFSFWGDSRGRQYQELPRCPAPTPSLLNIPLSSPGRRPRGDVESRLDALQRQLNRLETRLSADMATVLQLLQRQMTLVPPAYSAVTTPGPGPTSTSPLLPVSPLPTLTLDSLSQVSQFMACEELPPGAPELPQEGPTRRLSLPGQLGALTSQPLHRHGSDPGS

EC50 (Plasmodium falciparum [1]): 420 nM
SMILES: FC(F)(F)Oc1ccc(Nc2cc(Nc3nccn3-c3cccc(C(F)(F)F)c3)ncn2)cc1

EC50 (Plasmodium falciparum [2]): 0.46 nM
SMILES: CCOC(=O)c1c(C)[nH]c2cc(Cc3ccc(OC(F)(F)F)cc3)ccc2c1=O

EC50 (Plasmodium falciparum [4]): 6 nM
SMILES: CC1(C)c2nc(-c3ccc(F)cc3)c(Nc3ccc(Cl)cc3)n2CCN1C(=O)CN
IC50 [3]: 7200 nM

EC50 (Plasmodium): 20000 nM
SMILES: Cc1nc(C)c(Cl)c(O)c1Cl [CLOPIDOL]

SMILES: CCCCCCCc1c(C)[nH]c2cc(F)cc(F)c2c1=O
EC50 (Plasmodium falciparum [5]): 0.1 nM
EC50 (Plasmodium falciparum [6]): 80 nM
half-life [7]: 0.245 h

SMILES: COc1cc2[nH]c(C)c(-c3ccc(Oc4ccc(OC(F)(F)F)cc4)cc3)c(=O)c2cc1Cl
EC50 (Plasmodium falciparum [8]): 1 nM
solubility [9]: < 1 µM

EC50 (Plasmodium falciparum [10]): 1 nM
SMILES: C[C@H]1Cc2c([nH]c3cc(Cl)c(F)cc23)[C@@]2(N1)C(=O)Nc1ccc(Cl)cc12 [CIPARGAMIN]

half-life [11]: 10.6 h
EC50 (Plasmodium falciparum [12]): 30 nM
SMILES: CCOC(=O)c1c(-c2ccc(-c3ccc(OC(F)(F)F)cc3)cn2)[nH]c2ccccc2c1=O
ED50 (Plasmodium berghei): 2 mg/kg

SMILES: COc1ccc2c(=O)c(CCCCCC(F)(F)F)c(C)[nH]c2c1
EC50 (Plasmodium falciparum [5]): 30 nM
EC50 (Plasmodium falciparum [6]): 66 nM

SMILES: O=c1c2c([nH]c3ccc(-c4ccc(C(F)(F)F)cc4)cc13)CCSC2
solubility [13]: 2 µM (≈ 0.723 µg/mL)
Activity (Plasmodium falciparum [14]): 30 nM
half-life [15]: > 3 h

— ChEMBL document CHEMBL2429781, “Cell-based medicinal chemistry optimization of high-throughput screening (HTS) hits for orally active antimalarials. Part 1: challenges in potency and absorption, distribution, metabolism, excretion/pharmacokinetics (ADME/PK)” (J Med Chem, 2013)
